# Measurements reported in patent US7294643B2, “UK-1 analogues: methods of preparation and use” (Board of Regents, The University of Texas System, priority 2002, dated 2007).
# Tests used:
# [1] = Metal ion binding by continuous variation, Ca2+; conditions: Ca^2+, methanol, 1:1 complex
# Description: (§1) Previous work indicated the metal ion binding mechanism of UK-1, so the method of continuous variation was used to determine the ability of selected UK-1analogues to bind a variety of metal ions. Methanolic solutions of UK-1 or UK-1 analogues and metal ion salts [Ca(NO3)2, Mg(NO3)2, Zn(NO3)2, or Fe(NO3)3] at various molar ratios, and 20 μM combined total concentration, were prepared and the absorbance at 418 nm was determined. […] Compound 2.1 does bind with Ca^2+ and Zn^2+ better than UK-1.
# (§2) Continuous variation plots. A 100 μM solution of UK-1 or analogue and 100 AM solutions of Ca(NO3)2, Mg(NO3)2, Zn(NO3)2, or Fe(NO3)3 were prepared in methanol. From these stock solutions, 15 samples (1 mL) of varying mole fraction of the metal ion were prepared at a constant, combined concentration of 20 μM for the ligand and the metal ion. The change in absorbance was monitored from 500 to 200 nm for each sample using as a reference a 1 mL solution containing the same concentration of ligand as the sample being measured but without the metal ion. The maximum absorbance change was typically around 418 nm but varied somewhat for each metal ion. The absorbance at 418 nm was plotted as a function of the mole fraction of the metal ion and the maximum absorbance change was determined. The absorbance of a sample containing the metal ion concentration corresponding to this maximum change and a 15 fold excess of metal ion at this ligand concentration, subtracted from a reference containing the same concentration of ligand but no metal ion was used to normalize the curve and obtain the conditional formation constant as described in the paper to Likussar, W.; Boltz, D. F. Anal. Chem. 1971, 43, 1265-1272, which is incorporated herein by reference.
# SK-N-SH = assay: alamarBlue cytotoxicity assay, SK-N-SH; type: cell-based; conditions: Homo sapiens
# Description: (§3) Cytotoxicity Assays. Cell culture cytotoxicity assays were performed using the. alamarBlue method, as described by Ahmed et al., J. Immun. Methods 1994, 170, 211-224, which is incorporated herein by reference. Briefly, aliquots of 100 μL of cell suspension (1.0-2.5×10^3 cells) was placed in 96-well microtiter plates in an atmosphere of 5% CO2 at 37° C. After 24 hours, 100 μL of culture medium and 2 μL of compound in vehicle (culture media with 40% pyridine) or vehicle alone were added, and the plates incubated an additional 72 hours. The final pyridine concentration in all cases was 0.4%; at this pyridine concentration there was no affect on the growth of cells compared to cells in culture media without added pyridine. […] After the culture media had been removed from each well, 200 μL of fresh media and 20 μL of 90% alamarBlue reagent were added, followed by an additional 6 h incubation. The fluorescent intensity was measured using a Spectrafluor Plus plate reader with excitation at 530 nm and emission at 590 nm. Results are reported as IC50 values, the average concentration required to produce a decrease of fluorescent intensity of 50% relative to vehicle-treated controls in two separate determinations.
# [2] = Metal ion binding by continuous variation, Zn2+; conditions: Zn^2+, methanol, 1:1 complex
# Description: as §1, §2
# DU145 = assay: alamarBlue cytotoxicity assay, DU145; type: cell-based; conditions: Homo sapiens, DU-145
# Description: as §3
# SK-N-MC = assay: alamarBlue cytotoxicity assay, SK-N-MC; type: cell-based; conditions: Homo sapiens
# Description: as §3
# [3] = tested on: gram-positive or gram negative bacteria; conditions: gram-positive or gram negative bacteria, concentrations as large as 250 μM; cited from earlier work
# [4] = Metal ion binding by continuous variation, Fe3+; conditions: Fe^3+, methanol, 1:1 complex
# Description: as §1, §2
# Pseudomonas aeruginosa = assay: Antimicrobial bioassay, P. aeruginosa; type: cell-based; conditions: concentrations up to 50 μg/mL
# BT-20 = assay: alamarBlue cytotoxicity assay, BT-20; type: cell-based; conditions: Homo sapiens; BT-20, alamarBlue
# Description: as §3
# [5] = tested on: Staphylococcus aureus ATCC 29213; assay: Antimicrobial bioassay, S. aureus; type: cell-based; conditions: Staphylcoccus aureus, concentrations up to 50 μg/mL
# Description: Antimicrobial Bioassay: Staphylococcus aureus ATCC 29213 and methicillin-resistant S. aureus ATCC 43300 (MRS) were obtained from the American Type Culture Collection (Rockville, Md.) and stored on agar slants at 4° C. until needed. Susceptibility testing was performed using a modified version of the NCCLS methods: “Methods for Dilution Antimicrobial Susceptibility Tests for Bacteria that Grow Aerobically,” M7-A4, Vol. 17, No. 2, NCCLS, (1997) and “Reference Method for Broth Dilution Antifungal Susceptibility Testing of Yeasts; Approved Standard,” M27-A, Vol. 17, No. 9, NCCLS, (1997), both of which are incorporated herein by reference. Microorganisms were subcultured prior to the assay by suspending cells from the slant in Eugon broth (BBL, Maryland) and incubating for 24 hours at 37° C. Inocula were prepared by diluting the subcultured organism in its incubation broth after comparison to the 0.5 McFarland Standard (a BaSO4 suspension) to afford final inocula ranges of S. aureus: 1.0-5.0×10^5 and MRS: 0.2-6.0×10^5 CFU/ml. Test compounds were dissolved in DMSO, serially-diluted using normal saline, and transferred in duplicate to 96 well flat-bottomed microtiter plates. The microbial inocula were added to the samples to achieve a final volume of 200 μl and final compound concentrations starting with 50 μg/ml. Drug [Ciprofloxacin (ICN Biomedicals, Ohio)] as well as growth and blank (media only) controls were added to each test plate. Plates were read at 630 nm using the EL-340 Biokinetics Reader (Bio-Tek Instruments, Vermont) prior to and after incubation at 37° C. for 24 hours. Percent growth was calculated and plotted versus concentration to afford the IC50, or sample concentration that affords 50% growth of the organism relative to controls.
# SK-N-F1 = assay: alamarBlue cytotoxicity assay, SK-N-F1; type: cell-based
# Description: as §3
# SKBR3 = assay: alamarBlue cytotoxicity assay, SKBR3; type: cell-based; conditions: Homo sapiens, SK-BR-3
# Description: as §3
# yeast, or fungi = conditions: yeast, or fungi, concentrations as large as 250 μM; cited from earlier work
structure (smiles),measurement,setting,value
COC(=O)c1cccc2oc(-c3cccc4oc(-c5ccccc5O)nc34)nc12 [UK-1],Association constant for metal ion binding,[1],40000 M⁻¹
same,IC50,SK-N-SH,7000 nM
same,Association constant for metal ion binding,[2],2e+06 M⁻¹
same,IC50,DU145,200 nM
same,IC50,SK-N-MC,1100 nM
same,growth inhibition,[3],does not inhibit the growth
same,Association constant for metal ion binding,[4],250000 M⁻¹
same,antibacterial effect,Pseudomonas aeruginosa,no indication of any antibacterial effect
same,IC50,BT-20,170 nM
same,antibacterial effect,[5],no indication of any antibacterial effect
same,IC50,SK-N-F1,7000 nM
same,IC50,SKBR3,100 nM
same,growth inhibition,"yeast, or fungi",does not inhibit the growth
